Assay results: patent US8680159B2, “Bradykinin 1 receptor modulating compounds” (Gruenenthal GmbH, priority 2010, dated 2014)

molecular target: T1, B1R receptor of the rat (CHO K1 cells stably transfected with the B1R gene of the rat) (Rattus norvegicus, UniProt P97583); test: Functional study on the bradykinin receptor 1 (B1R), Ca2+ fluorescence (Fluo-4) FLIPR/Novostar assay, rB1R cells; type: cell-based; settings: CHO-K1, 10 μM, read-out: % Inhibition (r-B1R) at 10 μM
T1 construct: expressed in transfected cells; host or cells: CHO K1 cells (Chinese hamster ovary), stably transfected
T1 sequence (P97583 1-337): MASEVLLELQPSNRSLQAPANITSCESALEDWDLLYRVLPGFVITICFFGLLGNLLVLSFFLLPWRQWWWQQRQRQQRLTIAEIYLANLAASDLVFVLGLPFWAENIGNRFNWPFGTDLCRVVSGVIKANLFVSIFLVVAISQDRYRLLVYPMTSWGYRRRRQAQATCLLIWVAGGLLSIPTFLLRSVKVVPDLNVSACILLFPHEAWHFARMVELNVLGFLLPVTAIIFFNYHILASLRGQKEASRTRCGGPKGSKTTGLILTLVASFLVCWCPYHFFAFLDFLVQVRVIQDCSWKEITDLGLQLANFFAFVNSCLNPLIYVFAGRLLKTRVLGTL
In short: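 Stably transfected CHO K1 cells carrying human or rat B1R were Fluo-4 loaded and Ca2+ fluorescence read by FLIPR or Novostar. Compounds were added first at 10 μM for % activation, then the EC80 agonist was applied after 6-20 min (human: Lys-Des-Arg9-bradykinin; rat: Des-Arg9-bradykinin). % inhibition is relative to maximum achievable inhibition, and IC50 comes from concentration series.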

Row | inhibition at 10 µM [%] | Compound
1 | 112 | CN(C(=O)c1ccc2c(c1)C(NC(=O)c1cc(C(F)(F)F)ccc1Cl)CCO2)C1CCN(c2ccncc2)CC1 (centres unmarked) [CC_H-272, 4-[[2-Chloro-5-(trifluoromethyl)-benzoyl]amino]-N-methyl-N-(1-pyridin-4-yl-piperidin-4-yl)-3,4-dihydro-2H-chromene-6-carboxylic acid amide]
2 | 112 | Cc1ccc(F)c(C(=O)NC2CCOc3ccc(C(=O)N(C)C4CCN(c5ccncc5)CC4)cc32)c1Cl (centres unmarked) [CC_H-273, 4-[(2-Chloro-6-fluoro-3-methyl-benzoyl)amino]-N-methyl-N-(1-pyridin-4-yl-piperidin-4-yl)-3,4-dihydro-2H-chromene-6-carboxylic acid amide]
3 | 91 | CN(C(=O)c1ccc2c(c1)C(NC(=O)C1CC1)CCO2)C1CCN(c2ccncc2)CC1 (centres unmarked) [CC_H-274, 4-(Cyclopropanecarbonylamino)-N-methyl-N-(1-pyridin-4-yl-piperidin-4-yl)-3,4-dihydro-2H-chromene-6-carboxylic acid amide]
4 | 111 | CN(C(=O)c1ccc2c(c1)C(NC(=O)CC(C)(C)C)CCO2)C1CCN(c2ccncc2)CC1 (centres unmarked) [CC_H-275, 4-(3,3-Dimethyl-butanoylamino)-N-methyl-N-(1-pyridin-4-yl-piperidin-4-yl)-3,4-dihydro-2H-chromene-6-carboxylic acid amide]
5 | 51 | COCC(=O)NC1CCOc2ccc(C(=O)N(C)C3CCN(c4ccncc4)CC3)cc21 (centres unmarked) [CC_H-276, 4-[(2-Methoxy-acetyl]amino]-N-methyl-N-(1-pyridin-4-yl-piperidin-4-yl)-3,4-dihydro-2H-chromene-6-carboxylic acid amide]
6 | 100 | CC(=O)NC1CCOc2ccc(C(=O)N(C)C3CCN(c4ccncc4)CC3)cc21 (centres unmarked) [CC_H-277, 4-Acetylamino-N-methyl-N-(1-pyridin-4-yl-piperidin-4-yl)-3,4-dihydro-2H-chromene-6-carboxylic acid amide]
7 | 103 | Cc1cccc(Cl)c1S(=O)(=O)NC1CCOc2ccc(C(=O)N(C)C3CCN(c4ccncc4)CC3)cc21 (centres unmarked) [CC_H-278, 4-[[(2-Chloro-6-methyl-phenyl)sulfonyl]amino]-N-methyl-N-(1-pyridin-4-yl-piperidin-4-yl)-3,4-dihydro-2H-chromene-6-carboxylic acid amide]
8 | 111 | CN(C(=O)c1ccc2c(c1)C(NC(=O)c1cccc(C(F)(F)F)c1Cl)CCO2)C1CCN(c2ccncc2)CC1 (centres unmarked) [CC_H-279, 4-[[2-Chloro-3-(trifluoromethyl)-benzoyl]amino]-N-methyl-N-(1-pyridin-4-yl-piperidin-4-yl)-3,4-dihydro-2H-chromene-6-carboxylic acid amide]
9 | 91 | CN(C(=O)c1ccc2c(c1)C(NC(=O)Nc1ccccc1Cl)CCO2)C1CCN(c2ccncc2)CC1 (centres unmarked) [CC_H-280, 4-[[(2-Chlorophenyl)-carbamoyl]amino]-N-methyl-N-(1-pyridin-4-yl-piperidin-4-yl)-3,4-dihydro-2H-chromene-6-carboxylic acid amide]
10 | 99 | CN(C(=O)c1ccc2c(c1)C(NC(=O)Nc1cccc(Cl)c1)CCO2)C1CCN(c2ccncc2)CC1 (centres unmarked) [CC_H-281, 4-[[(3-Chlorophenyl)-carbamoyl]amino]-N-methyl-N-(1-pyridin-4-yl-piperidin-4-yl)-3,4-dihydro-2H-chromene-6-carboxylic acid amide]
11 | 102 | CN(C(=O)c1ccc2c(c1)C(NC(=O)Nc1cccc(Cl)c1Cl)CCO2)C1CCN(c2ccncc2)CC1 (centres unmarked) [CC_H-282, 4-[[(2,3-Dichloro-phenyl)-carbamoyl]amino]-N-methyl-N-(1-pyridin-4-yl-piperidin-4-yl)-3,4-dihydro-2H-chromene-6-carboxylic acid amide]
12 | 106 | CN(C(=O)c1ccc2c(c1)C(NC(=O)Nc1cc(Cl)ccc1Cl)CCO2)C1CCN(c2ccncc2)CC1 (centres unmarked) [CC_H-283, 4-[[(2,5-Dichloro-phenyl)-carbamoyl]amino]-N-methyl-N-(1-pyridin-4-yl-piperidin-4-yl)-3,4-dihydro-2H-chromene-6-carboxylic acid amide]
13 | 75 | CN(C(=O)c1ccc2c(c1)C(NC(=O)Nc1cc(C(F)(F)F)ccc1Cl)CCO2)C1CCN(c2ccncc2)CC1 (centres unmarked) [CC_H-285, 4-[[[2-Chloro-5-(trifluoromethyl)-phenyl]-carbamoyl]amino]-N-methyl-N-(1-pyridin-4-yl-piperidin-4-yl)-3,4-dihydro-2H-chromene-6-carboxylic acid amide]
14 | 87 | CN(C(=O)c1ccc2c(c1)C(NC(=O)Nc1ccc(Cl)cc1Cl)CCO2)C1CCN(c2ccncc2)CC1 (centres unmarked) [CC_H-286, 4-[[(2,4-Dichlorophenyl)-carbamoyl]amino]-N-methyl-N-(1-pyridin-4-yl-piperidin-4-yl)-3,4-dihydro-2H-chromene-6-carboxylic acid amide]
15 | 69 | Cc1ccc(NC(=O)NC2CCOc3ccc(C(=O)N(C)C4CCN(c5ccncc5)CC4)cc32)cc1Cl (centres unmarked) [CC_H-288, 4-[[(3-Chloro-4-methyl-phenyl)-carbamoyl]amino]-N-methyl-N-(1-pyridin-4-yl-piperidin-4-yl)-3,4-dihydro-2H-chromene-6-carboxylic acid amide]
16 | 77 | CN(C(=O)c1ccc2c(c1)C(NC(=O)Nc1ccc(F)c(Cl)c1)CCO2)C1CCN(c2ccncc2)CC1 (centres unmarked) [CC_H-289, 4-[[(3-Chloro-4-fluoro-phenyl)-carbamoyl]amino]-N-methyl-N-(1-pyridin-4-yl-piperidin-4-yl)-3,4-dihydro-2H-chromene-6-carboxylic acid amide]
17 | 102 | CN(C(=O)NC1CCOc2ccc(C(=O)N(C)C3CCN(c4ccncc4)CC3)cc21)c1ccccc1Cl (centres unmarked) [CC_H-292, 4-[[(2-Chlorophenyl)-methyl-carbamoyl]amino]-N-methyl-N-(1-pyridin-4-yl-piperidin-4-yl)-3,4-dihydro-2H-chromene-6-carboxylic acid amide]
18 | 109 | CC(C)CC(=O)NC1CCOc2ccc(C(=O)N(C)C3CCN(c4ccncc4)CC3)cc21 (centres unmarked) [CC_H-293, N-Methyl-4-(3-methyl-butanoylamino)-N-(1-pyridin-4-yl-piperidin-4-yl)-3,4-dihydro-2H-chromene-6-carboxylic acid amide]
19 | 111 | Cc1cc(N2CCC(N(C)C(=O)c3ccc4c(c3)C(NC(=O)c3cc(F)ccc3Cl)CC4)CC2)cc(C)n1 (centres unmarked) [CC_H-294, 3-[(2-Chloro-5-fluoro-benzoyl)amino]-N-[1-(2,6-dimethyl-pyridin-4-yl)-piperidin-4-yl]-N-methyl-2,3-dihydro-1H-indene-5-carboxylic acid amide]
20 | 111 | Cc1cc(N2CCC(N(C)C(=O)c3ccc4c(c3)C(NC(=O)c3c(F)ccc(C)c3Cl)CC4)CC2)cc(C)n1 (centres unmarked) [CC_H-295, 3-[(2-Chloro-6-fluoro-3-methyl-benzoyl)amino]-N-[1-(2,6-dimethyl-pyridin-4-yl)-piperidin-4-yl]-N-methyl-2,3-dihydro-1H-indene-5-carboxylic acid amide]
21 | 112 | Cc1cc(N2CCC(N(C)C(=O)c3ccc4c(c3)C(NC(=O)c3cc(Cl)ccc3Cl)CC4)CC2)cc(C)n1 (centres unmarked) [CC_H-296, 3-[(2,5-Dichloro-benzoyl)amino]-N-[1-(2,6-dimethyl-pyridin-4-yl)-piperidin-4-yl]-N-methyl-2,3-dihydro-1H-indene-5-carboxylic acid amide]
22 | 110 | Cc1cc(N2CCC(N(C)C(=O)c3ccc4c(c3)C(NC(=O)C3CCCCC3)CC4)CC2)cc(C)n1 (centres unmarked) [CC_H-297, 3-(Cyclohexanecarbonylamino)-N-[1-(2,6-dimethyl-pyridin-4-yl)-piperidin-4-yl]-N-methyl-2,3-dihydro-1H-indene-5-carboxylic acid amide]
23 | 101 | Cc1cc(N2CCC(N(C)C(=O)c3ccc4c(c3)C(NC(=O)C3CC3)CC4)CC2)cc(C)n1 (centres unmarked) [CC_H-298, 3-(Cyclopropanecarbonylamino)-N-[1-(2,6-dimethyl-pyridin-4-yl)-piperidin-4-yl]-N-methyl-2,3-dihydro-1H-indene-5-carboxylic acid amide]
24 | 110 | Cc1cc(N2CCC(N(C)C(=O)c3ccc4c(c3)C(NC(=O)CC(C)(C)C)CC4)CC2)cc(C)n1 (centres unmarked) [CC_H-299, 3-(3,3-Dimethyl-butanoylamino)-N-[1-(2,6-dimethyl-pyridin-4-yl)-piperidin-4-yl]-N-methyl-2,3-dihydro-1H-indene-5-carboxylic acid amide]
25 | 103 | COCC(=O)NC1CCc2ccc(C(=O)N(C)C3CCN(c4cc(C)nc(C)c4)CC3)cc21 (centres unmarked) [CC_H-300, N-[1-(2,6-Dimethyl-pyridin-4-yl)-piperidin-4-yl]-3-[(2-methoxy-acetyl)amino]-N-methyl-2,3-dihydro-1H-indene-5-carboxylic acid amide]
26 | 112 | Cc1cc(N2CCC(N(C)C(=O)c3ccc4c(c3)C(NS(=O)(=O)Cc3ccccc3C(F)(F)F)CC4)CC2)cc(C)n1 (centres unmarked) [CC_H-302, N-[1-(2,6-Dimethyl-pyridin-4-yl)-piperidin-4-yl]-N-methyl-3-[[[2-(trifluoromethyl)-phenyl]-methylsulfonyl]amino]-2,3-dihydro-1H-indene-5-carboxylic acid amide]
